According to patent US20250151722A1 (priority 2022, published 2025):
“And” between values parts separate entries of the source, which are not always exact repeats. Equal entries are not always repeated. “Also recorded” adds a separate entry of the source. Where two headings read alike, the source gives them in different places.

Experiments:
[1] = test system: A. flavus IFM47798 strain; assay: Fungal growth (dry fungal weight) in liquid culture, Test Example 1; type: cell-based, Aspergillus flavus
[2] = test system: A. flavus MAFF111229 strain; type: cell-based, Aspergillus flavus
[3] = test system: A. flavus MAFF111229 strain
[4] = test system: A. flavus IFM47798 strain; type: cell-based, Aspergillus flavus; conditions: for Total AF Relative Value (%): 48 h, 28° C., untreated control = 100, mean ± SD, n = 4
[5] = test system: A. parasiticus NRRL2999 strain; type: cell-based, Aspergillus parasiticus
[6] = test system: A. parasiticus NRRL2999 strain
[7] = test system: A. flavus MAFF111229 strain; type: cell-based, Aspergillus flavus; conditions: untreated control = 100, mean ± SD, n = 4
[8] = alcohol 0.3 v/v %, 48 h, 28° C., untreated control = 100, mean ± SD, n = 4
[9] = alcohol 0.6 v/v %, 48 h, 28° C., untreated control = 100, mean ± SD, n = 4
[10] = alcohol 1 v/v %, 48 h, 28° C., untreated control = 100, mean ± SD, n = 4
[11] = alcohol 2 v/v %, 48 h, 28° C., untreated control = 100, mean ± SD, n = 4
[12] = alcohol 4 v/v %, 48 h, 28° C., untreated control = 100, mean ± SD, n = 4

Q: With `CCC(C)O` (stereo not drawn) [2-Butanol] as the compound, how does the “Fungal Weight Relative Value (%)” value [1] read?
A: The value was 66.1 ± 5.4% and 70.2 ± 4.2%.

Q: What about the “Total AF Relative Value (%)” value [2] of the same compound?
A: Its value is 0.0 ± 0.0 %.

Q: What about the “Fungal Weight Relative Value (%)” value [3] of the same compound?
A: The value was 56.2 ± 7.3% and 48.9 ± 8.7%.

Q: For `CC(C)O` [2-Propanol], which “amount of aflatoxins produced” value [4] is on record?
A: Its value is “increase the amount of aflatoxins produced; also recorded: same tendencies as in the case of ethanol”.

Q: And the “Fungal Weight Relative Value (%)” value [1, 8]?
A: The value was 126.2 ± 6.4%.

Q: And the “Fungal Weight Relative Value (%)” value [1, 9]?
A: Its value is 128.0 ± 11.6%.

Q: What about the “Fungal Weight Relative Value (%)” value [1, 10] of the same compound?
A: The value was 103.7 ± 7.7%.

Q: What about the “Fungal Weight Relative Value (%)” value [1, 11] of the same compound?
A: Its value is 94.4 ± 8.3%.

Q: What about the “Fungal Weight Relative Value (%)” value [1, 12] of the same compound?
A: The value was 0.0 ± 0.0%.

Q: How did the “Fungal Weight Relative Value (%)” value [1] turn out when `CCCO` [1-Propanol] was run?
A: The value was 102.9 ± 12.0% and 118.1 ± 5.4%.

Q: What about the “Total AF Relative Value (%)” value [5] of the same compound?
A: The value was 58.7 ± 9.5 % and 47.5 ± 6.5 %.

Q: And the “Fungal Weight Relative Value (%)” value [3]?
A: Its value is 104.5 ± 6.5% and 103.9 ± 8.8%.

Q: And the “Fungal Weight Relative Value (%)” value [6]?
A: The value was 87.4 ± 1.8% and 86.4 ± 2.8%.

Q: What does the source list for `CCO` [Ethanol]?
A: aflatoxin production [4]: the aflatoxin production was accordingly inhibited; amount of aflatoxins produced [4]: increase the amount of aflatoxins produced; also recorded: conversely increased; Total AF Relative Value (%) ([4]; alcohol 0.3 v/v %): 197.1 ± 25.9 %; Total AF Relative Value (%) ([4]; alcohol 0.6 v/v %): 244.5 ± 13.2 %; Total AF Relative Value (%) ([4]; alcohol 1 v/v %): 222.4 ± 20.9 %; Total AF Relative Value (%) ([4]; alcohol 2 v/v %): 24.3 ± 10.5 %; Total AF Relative Value (%) ([4]; alcohol 4 v/v %): 0.0 ± 0.0 %; growth of A. flavus [1]: not inhibited; growth of A. flavus ([1]; concentration of 4 v/v % or higher): the growth of A. flavus was inhibited

Q: How did the “Total AF Relative Value (%)” value ([4]; alcohol 0.3 v/v %) turn out when `CO` [Methanol] was run?
A: Its value is 70.6 ± 12.1 %.

Q: What about the “Total AF Relative Value (%)” value ([4]; alcohol 0.6 v/v %) of the same compound?
A: Its value is 63.4 ± 12.7 %.

Q: What about the “Total AF Relative Value (%)” value ([4]; alcohol 1 v/v %) of the same compound?
A: The value was 0.0 ± 0.0 %.

Q: What about the “Total AF Relative Value (%)” value ([4]; alcohol 2 v/v %) of the same compound?
A: The value was 0.0 ± 0.0 %.

Q: What about the “Total AF Relative Value (%)” value ([4]; alcohol 4 v/v %) of the same compound?
A: The value was 0.0 ± 0.0 %.

Q: What about the “Fungal Weight Relative Value (%)” value [1, 8] of the same compound?
A: Its value is 103.7 ± 3.5%.

Q: What about the “Fungal Weight Relative Value (%)” value [1, 9] of the same compound?
A: The value was 110.1 ± 6.7%.

Q: What about the “Fungal Weight Relative Value (%)” value [1, 10] of the same compound?
A: Its value is 128.4 ± 3.0%.

Q: And the “Fungal Weight Relative Value (%)” value [1, 11]?
A: Its value is 145.9 ± 11.4%.

Q: What about the “Fungal Weight Relative Value (%)” value [1, 12] of the same compound?
A: Its value is 103.7 ± 3.5%.

Q: And the “Total AF Relative Value (%)” value ([7]; alcohol 0.3 v/v %)?
A: The value was 108.5 ± 5.8%.

Q: What about the “Total AF Relative Value (%)” value ([7]; alcohol 0.6 v/v %) of the same compound?
A: Its value is 102.3 ± 5.0%.

Q: And the “Total AF Relative Value (%)” value ([7]; alcohol 1 v/v %)?
A: The value was 13.8 ± 0.8 %.

Q: What about the “Total AF Relative Value (%)” value ([7]; alcohol 2 v/v %) of the same compound?
A: Its value is 0.0 ± 0.0 %.

Q: And the “Total AF Relative Value (%)” value ([7]; alcohol 4 v/v %)?
A: Its value is 0.0 ± 0.0 %.

Q: What about the “Total AF Relative Value (%)” value ([5]; alcohol 0.3 v/v %, untreated control = 100, mean ± SD, n = 4) of the same compound?
A: The value was 86.3 ± 3.6 %.

Q: What about the “Total AF Relative Value (%)” value ([5]; alcohol 0.6 v/v %, untreated control = 100, mean ± SD, n = 4) of the same compound?
A: Its value is 72.3 ± 1.9 %.

Q: And the “Total AF Relative Value (%)” value ([5]; alcohol 1 v/v %, untreated control = 100, mean ± SD, n = 4)?
A: Its value is 31.1 ± 1.4 %.

Q: And the “Total AF Relative Value (%)” value ([5]; alcohol 2 v/v %, untreated control = 100, mean ± SD, n = 4)?
A: Its value is 10.3 ± 1.3 %.

Q: What about the “Total AF Relative Value (%)” value ([5]; alcohol 4 v/v %, untreated control = 100, mean ± SD, n = 4) of the same compound?
A: Its value is 3.4 ± 0.8 %.

Q: What about the “Total AF Relative Value (%)” value ([2]; corn kernels sprayed with alcohol 20 μL per 1 g of kernels, 28° C., one week, positive control = 100, mean ± SD, n = 3) of the same compound?
A: The value was 1.0 ± 1.3 %.

Q: And the “Fungal Weight Relative Value (%)” value [3]?
A: The value was 123.6 ± 6.8% and 123.6 ± 10.4% and 112.8 ± 10.4% and 98.0 ± 4.6% and 101.4 ± 3.5%.

Q: What about the “Fungal Weight Relative Value (%)” value [6] of the same compound?
A: The value was 93.3 ± 11.2% and 92.0 ± 6.9% and 100.0 ± 8.5% and 102.1 ± 1.6% and 102.9 ± 3.7%.

Q: What does the source list for `CC(C)(C)O` [2-Methyl-2-Propanol]?
A: amount of aflatoxins produced [4]: increase the amount of aflatoxins produced; also recorded: same tendencies as in the case of ethanol; Fungal Weight Relative Value (%) [1, 8]: 104.8 ± 7.9%; Fungal Weight Relative Value (%) [1, 9]: 101.0 ± 4.8%; Fungal Weight Relative Value (%) [1, 10]: 51.9 ± 15.5%; Fungal Weight Relative Value (%) [1, 11]: 0.0 ± 0.0%; Fungal Weight Relative Value (%) [1, 12]: 0.0 ± 0.0%
